Measured values as given in US20200078468A1, “NEUROTENSIN RECEPTOR BINDING CONJUGATES AND FORMULATIONS THEREOF” (priority 2016, published 2020).
Like-named read-outs stand apart in the source and are kept apart here. Numbered stars: 1 amine (or outer) side, 2 acyl side, 3 side chain; on linkers, the order of the positions; unused ones are H or OH. Bridge positions count the residues as written; N and C are the ends. Square brackets hold non-standard residues; d marks the D form. Peptide text beside a SMILES is read from it. I, II: the chains in the order shown. * marks the point of attachment. X3 = COc1cccc2c1C(=O)c1c(O)c3c(c(O)c1C2=O)C[C@@](O)(C(=O)CO)C[C@@H]3O[C@H]1C[C@H](NC(=O)OCCS*)[C@H](O)[C@H](C)O1; X4 = CCc1c2c(nc3ccc(O)cc13)-c1cc3c(c(=O)n1C2)COC(=O)[C@@]3(CC)OC(=O)OCCS*; Hexanoyl(6-succinimido-3yl) = O=C1CC([*:1])C(=O)N1CCCCCC(=O)[*:2]; Dolaproine = CO[C@@H]([C@@H]1CCCN1)[C@@H](C)C(=O)O; Dil = CC[C@H](C)[C@H](NC)[C@@H](CC(=O)O)OC; PABC = O=C(OCc1ccc(N[*:1])cc1)[*:2]; X1 = C[C@@H](N*)[C@@H](O)c1ccccc1; Cit = NC(=O)NCCC[C@H](N)C(=O)O; Pen = CC(C)(S)[C@H](N)C(=O)O; Tle = CC(C)(C)[C@H](N)C(=O)O; NMeV = CN[C@H](C(=O)O)C(C)C

How the values were obtained:
[1] = test system: SW48 (human colon cancer cells); assay: inhibition of SW48 cell proliferation (CellTiter Glo); format: cell-based; details: 72 hrs, read-out: SW-48 proliferation IC50
In short: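 Cells plated at 5,000/well and grown 24 hrs were exposed to conjugates for 72 hrs at 37° C, 5% CO2, in a ten-point three-fold series starting at 10 μM; vehicle was 0.01% DMSO. Proliferation was read by CellTiter Glo. % inhibition was taken relative to vehicle, with IC50 from four-parameter nonlinear regression.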

[2] = molecular target: T1, human NTSR1 (Homo sapiens, UniProt P30989); assay: radioligand-receptor binding assay, [125I] labeled neurotensin (Eurofins Panlabs)
T1 construct: host or cells: HEK-293 cells (membrane preparations)
In short: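 Membranes from HEK-293 cells expressing human NTSR1 incubated 45 min with 0.02 nM [125I]neurotensin and conjugate in 6-point 3-fold dilutions from 100 or 10 nM; bound radioactivity counted after filtration. IC50 by nonlinear regression, converted to Ki via Cheng–Prusoff using historical ligand Kd.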

[3] = test system: HT-29 cells (human colon cancer cells); assay: inhibition of HT29 cell proliferation (Cell Titer Glo 2.0); format: cell-based; details: NTSR1 scrambled compound; 72 h
Procedure: Conjugates were assessed in an in vitro assay evaluating inhibition of cell proliferation. HT-29 cells (human colon cancer cells) were seeded in white walled 96-well plates at 10,000 cells per well in 100 μl McCoy's 5a (Invitrogen) media supplemented with 10% Fetal Bovine Serum (Invitrogen). After allowing cells to settle overnight, 5 μl of 20× test article was added to each well in replicate and incubated for 72 h. 72 hours after addition of compound, plates were removed from incubator and allowed to cool to room temperature. 50 μl of Cell Titer Glo 2.0 (Promega) was added to each well, incubated for 15 minutes, and plates were read on Glomax luminometer (Promega) using the Cell Titer Glo protocol. Raw luminometer readings for each plate were transformed by dividing the experimental well into the mean of untreated control wells. This is reported as ratio of untreated, and is plotted with Prism 6 software (Graph Pad) and fitted with a 4-parameter, variable slope curve.
Conjugates are assessed for receptor-dependent cytotoxicity by the difference between an NTSR1-targeting conjugate, and the corresponding conjugate with the same linker moiety and active agent where the NTSR1-targeting domain has been scrambled.

[4] = [125I] neurotensin 0.02 nM, membranes from NTSR1 expressing HEK-293 cells, 45 minute incubation, Cheng and Prusoff, read-out: NTSR1 binding Ki

T1 sequence (P30989 whole entry): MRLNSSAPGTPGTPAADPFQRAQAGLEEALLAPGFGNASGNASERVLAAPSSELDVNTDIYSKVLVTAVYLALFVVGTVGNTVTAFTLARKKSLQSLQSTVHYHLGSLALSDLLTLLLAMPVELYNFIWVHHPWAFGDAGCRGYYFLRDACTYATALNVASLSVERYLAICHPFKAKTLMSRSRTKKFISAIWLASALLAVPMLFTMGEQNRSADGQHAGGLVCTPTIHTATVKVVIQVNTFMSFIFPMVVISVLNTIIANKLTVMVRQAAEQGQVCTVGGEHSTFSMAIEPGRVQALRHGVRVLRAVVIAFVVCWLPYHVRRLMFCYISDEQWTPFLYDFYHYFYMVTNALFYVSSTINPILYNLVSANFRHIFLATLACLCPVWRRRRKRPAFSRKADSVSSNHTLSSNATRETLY

Row | SMILES | IC50 ([1]; NTSR1 targeted compound) [µM] | Ki [2, 4] [µM] | IC50 ([1]; NTSR1 scrambled compound) [µM] | IC50 [3] [µM] | Ki [2] [µM]
1 | COc1cc2cc(c1Cl)N(C)C(=O)C[C@H](OC(=O)[C@H](C)N(C)C(=O)CCSC1CC(=O)N(CCCNC(=O)CNC(=O)[C@H](CC(C)C)NC(=O)[C@H](Cc3ccccc3)NC(=O)CNC(=O)CCCCCN3C(=O)CC(SCCC(=O)NCCCC[C@H](NC(C)=O)C(=O)N4CCC[C@H]4C(=O)N[C@H](CCCN)C(=O)N[C@@H](CCCNC(=N)N)C(=O)N4CCC[C@H]4C(=O)N[C@@H](Cc4ccc(O)cc4)C(=O)N[C@H](C(=O)N[C@@H](CC(C)C)C(=O)O)C(C)(C)C)C3=O)C1=O)[C@]1(C)O[C@H]1[C@H](C)[C@@H]1C[C@@](O)(NC(=O)O1)[C@H](OC)/C=C/C=C(\C)C2 (stereo partly drawn) [Compound 35] | 0.0473 | 0.00375 |  |  | 
2 | COc1cc2cc(c1Cl)N(C)C(=O)C[C@H](OC(=O)[C@H](C)N(C)C(=O)CCSC1CC(=O)N(CCCNC(=O)CNC(=O)[C@H](CC(C)C)NC(=O)[C@H](Cc3ccccc3)NC(=O)CNC(=O)CCCCCN3C(=O)CC(SCCC(=O)NCCCC[C@H](NC(C)=O)C(=O)N4CCC[C@H]4C(=O)N[C@@H](CCCN)C(=O)N[C@@H](CCN)C(=O)N4CCC[C@H]4C(=O)N[C@@H](Cc4ccc(O)cc4)C(=O)N[C@H](C(=O)N[C@@H](CC(C)C)C(=O)O)C(C)(C)C)C3=O)C1=O)[C@]1(C)O[C@H]1[C@H](C)[C@@H]1C[C@@](O)(NC(=O)O1)[C@H](OC)/C=C/C=C(\C)C2 (stereo partly drawn) [Compound 36] | 0.05 | 0.0048 |  |  | 
3 | COc1cc2cc(c1Cl)N(C)C(=O)C[C@H](OC(=O)[C@H](C)N(C)C(=O)CCSC1CC(=O)N(CCCNC(=O)CNC(=O)[C@H](CC(C)C)NC(=O)[C@H](Cc3ccccc3)NC(=O)CNC(=O)CCCCCN3C(=O)CC(SCCC(=O)NCCCC[C@H](NC(C)=O)C(=O)N4CCC[C@H]4C(=O)N[C@@H](CCCN)C(=O)N[C@@H](CCCNC(=N)N)C(=O)N4CCC[C@H]4C(=O)N[C@@H](Cc4ccc(O)cc4)C(=O)N[C@H](C(=O)N[C@@H](CC(C)C)C(=O)O)C(C)(C)C)C3=O)C1=O)[C@]1(C)O[C@H]1[C@H](C)[C@@H]1C[C@@](O)(NC(=O)O1)[C@H](OC)/C=C/C=C(\C)C2 (stereo partly drawn) [Compound 37] | 0.0516 | 0.00235 |  |  | 
4 | COc1cccc2c1C(=O)c1c(O)c3c(c(O)c1C2=O)C[C@@](O)(C(=O)CO)C[C@@H]3O[C@H]1C[C@H](NC(=O)OCCSSC(C)(C)[C@H](NC(C)=O)C(=O)N2CCC[C@H]2C(=O)N[C@@H](CCCNC(=N)N)C(=O)N[C@@H](CCCNC(=N)N)C(=O)N2CCC[C@H]2C(=O)N[C@@H](Cc2ccc(O)cc2)C(=O)N[C@H](C(=O)N[C@@H](CC(C)C)C(=O)O)C(C)(C)C)[C@H](O)[C@H](C)O1 [Compound 51] (Ac-[Pen](X3)PRRPY[Tle]L-OH) | 1.6 | 0.00134 |  |  | 
5 | CC[C@H](C)[C@@H]([C@@H](CC(=O)N1CCC[C@H]1[C@H](OC)[C@@H](C)C(=O)N[C@H](C)[C@@H](O)c1ccccc1)OC)N(C)C(=O)[C@@H](NC(=O)[C@H](C(C)C)N(C)C(=O)OCc1ccc(NC(=O)[C@H](CCCNC(N)=O)NC(=O)[C@@H](NC(=O)CCCCCN2C(=O)CC(SC(C)(C)[C@H](NC(C)=O)C(=O)N3CCC[C@H]3C(=O)N[C@@H](CCCCN)C(=O)N[C@@H](CCCNC(=N)N)C(=O)N3CCC[C@H]3C(=O)N[C@@H](Cc3ccc(O)cc3)C(=O)N[C@H](C(=O)N[C@@H](CC(C)C)C(=O)O)C(C)(C)C)C2=O)C(C)C)cc1)C(C)C (stereo partly drawn) [Compound 59] (I: Ac-[Pen]PKRPY[Tle]L-OH / II: V[Cit][PABC][NMeV]V[Dil][Dolaproine]-X1; linker I:1-II:N via Hexanoyl(6-succinimido-3yl)) | 0.065 | 0.00698 |  |  | 
6 | CCc1c2c(nc3ccc(O)cc13)-c1cc3c(c(=O)n1C2)COC(=O)[C@@]3(CC)OC(=O)OCCSSC(C)(C)[C@H](NC(C)=O)C(=O)N1CCC[C@H]1C(=O)N[C@@H](CCCNC(=N)N)C(=O)N[C@@H](CCCNC(=N)N)C(=O)N1CCC[C@H]1C(=O)N[C@@H](Cc1ccc(O)cc1)C(=O)N[C@H](C(=O)N[C@@H](CC(C)C)C(=O)O)C(C)(C)C [Compound 63] (Ac-[Pen](X4)PRRPY[Tle]L-OH) | 0.226 | 0.00189 |  |  | 
7 | CCc1c2c(nc3ccc(O)cc13)-c1cc3c(c(=O)n1C2)COC(=O)[C@@]3(CC)OC(=O)OCc1ccc(NC(=O)[C@H](CCCNC(N)=O)NC(=O)[C@@H](NC(=O)CCCCCN2C(=O)CC(SC(C)(C)[C@H](NC(C)=O)C(=O)N3CCC[C@H]3C(=O)N[C@@H](CCCNC(=N)N)C(=O)N[C@@H](CCCNC(=N)N)C(=O)N3CCC[C@H]3C(=O)N[C@@H](Cc3ccc(O)cc3)C(=O)N[C@H](C(=O)N[C@@H](CC(C)C)C(=O)O)C(C)(C)C)C2=O)C(C)C)cc1 (stereo partly drawn) [Compound 64] | 0.066 | 0.00205 |  |  | 
8 | COc1cc2cc(c1Cl)N(C)C(=O)C[C@H](OC(=O)[C@H](C)N(C)C(=O)CCSSC(C)(C)[C@H](NC(C)=O)C(=O)N1CCC[C@H]1C(=O)N[C@@H](CC(C)C)C(=O)N1CCC[C@H]1C(=O)N[C@@H](CCCNC(=N)N)C(=O)N[C@H](C(=O)N[C@@H](CCCNC(=N)N)C(=O)N[C@@H](Cc1ccc(O)cc1)C(=O)O)C(C)(C)C)[C@]1(C)O[C@H]1[C@H](C)[C@@H]1C[C@@](O)(NC(=O)O1)[C@H](OC)/C=C/C=C(\C)C2 [Compound 77] |  | > 0.1 | 0.0165 |  | 
9 | COc1cc2cc(c1Cl)N(C)C(=O)C[C@H](OC(=O)[C@H](C)N(C)C(=O)CCSSCCC(=O)NCCCC[C@H](NC(C)=O)C(=O)N1CCC[C@H]1C(=O)N[C@@H](CC(C)C)C(=O)N1CCC[C@H]1C(=O)N(C)[C@@H](CCCNC(=N)N)C(=O)N[C@H](C(=O)N[C@@H](CCCNC(=N)N)C(=O)N[C@@H](Cc1ccc(O)cc1)C(=O)O)C(C)(C)C)[C@]1(C)O[C@H]1[C@H](C)[C@@H]1C[C@@](O)(NC(=O)O1)[C@H](OC)/C=C/C=C(\C)C2 [Compound 78] |  |  | 0.003 | 0.0133 | 
10 | COc1cc2cc(c1Cl)N(C)C(=O)C[C@H](OC(=O)[C@H](C)N(C)C(=O)CCSC1CC(=O)N(CCCCCC(=O)NCCCC[C@H](NC(C)=O)C(=O)N3CCC[C@H]3C(=O)N[C@@H](CC(C)C)C(=O)N3CCC[C@H]3C(=O)N(C)[C@@H](CCCNC(=N)N)C(=O)N[C@H](C(=O)N[C@@H](CCCNC(=N)N)C(=O)N[C@@H](Cc3ccc(O)cc3)C(=O)O)C(C)(C)C)C1=O)[C@]1(C)O[C@H]1[C@H](C)[C@@H]1C[C@@](O)(NC(=O)O1)[C@H](OC)/C=C/C=C(\C)C2 (stereo partly drawn) [Compound 80] |  |  | 0.081 | 0.116 | 
11 | COc1cc2cc(c1Cl)N(C)C(=O)C[C@H](OC(=O)[C@H](C)N(C)C(=O)CCSC1CC(=O)N(CCCNC(=O)CNC(=O)[C@H](CC(C)C)NC(=O)[C@H](Cc3ccccc3)NC(=O)CNC(=O)CCCCCN3C(=O)CC(SC(C)(C)[C@H](NC(C)=O)C(=O)N4CCC[C@H]4C(=O)N[C@@H](CC(C)C)C(=O)N4CCC[C@H]4C(=O)N[C@@H](CCCNC(=N)N)C(=O)N[C@H](C(=O)N[C@@H](CCCNC(=N)N)C(=O)N[C@@H](Cc4ccc(O)cc4)C(=O)O)C(C)(C)C)C3=O)C1=O)[C@]1(C)O[C@H]1[C@H](C)[C@@H]1C[C@@](O)(NC(=O)O1)[C@H](OC)/C=C/C=C(\C)C2 (stereo partly drawn) [Compound 81] |  |  | 0.07 |  | > 0.1
12 | CC[C@H](C)[C@@H]([C@@H](CC(=O)N1CCC[C@H]1[C@H](OC)[C@@H](C)C(=O)N[C@H](C)[C@@H](O)c1ccccc1)OC)N(C)C(=O)[C@@H](NC(=O)[C@H](C(C)C)N(C)C(=O)OCc1ccc(NC(=O)[C@H](CCCNC(N)=O)NC(=O)[C@@H](NC(=O)CCCCCN2C(=O)CC(SC(C)(C)[C@H](NC(C)=O)C(=O)N3CCC[C@H]3C(=O)N[C@@H](CC(C)C)C(=O)N3CCC[C@H]3C(=O)N[C@@H](CCCNC(=N)N)C(=O)N[C@H](C(=O)N[C@@H](CCCNC(=N)N)C(=O)N[C@@H](Cc3ccc(O)cc3)C(=O)O)C(C)(C)C)C2=O)C(C)C)cc1)C(C)C (stereo partly drawn) [Compound 90] |  |  | 0.06 | 0.097 | 
